The results in this text go back to patent US20260174878A1, “IRAK4 DEGRADATION AGENT AND USE THEREOF” (LEADINGTAC PHARMACEUTICAL (SHAOXING) CO., LTD., priority 2022, published 2026).

One may read the DC50 as the concentration giving 50% degradation. Read a low DC50 as a more potent degrader. For orientation: Dmax means the greatest extent of degradation seen. A higher Dmax goes with a fuller loss of target.

Each structure is given as a SMILES string.

This assay concerns the target T1, IRAK4 protein in normal human PBMCs (Homo sapiens, UniProt Q9NWZ3).
T1 construct: host or cells: normal human PBMCs
T1 sequence (Q9NWZ3 1-460): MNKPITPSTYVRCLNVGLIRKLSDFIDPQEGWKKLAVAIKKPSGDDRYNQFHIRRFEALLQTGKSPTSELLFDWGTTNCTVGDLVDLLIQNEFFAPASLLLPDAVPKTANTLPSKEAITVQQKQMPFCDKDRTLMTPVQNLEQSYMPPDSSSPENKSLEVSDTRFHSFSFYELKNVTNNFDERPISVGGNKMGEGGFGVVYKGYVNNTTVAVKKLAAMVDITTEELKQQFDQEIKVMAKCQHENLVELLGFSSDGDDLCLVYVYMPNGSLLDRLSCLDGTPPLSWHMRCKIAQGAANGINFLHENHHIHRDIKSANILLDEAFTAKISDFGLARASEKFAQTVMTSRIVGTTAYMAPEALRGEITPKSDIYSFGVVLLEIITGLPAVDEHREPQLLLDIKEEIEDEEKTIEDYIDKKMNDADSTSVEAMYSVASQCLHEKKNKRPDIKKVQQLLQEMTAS
Briefly: Degradation of IRAK4 protein in normal human PBMCs (AlphaLISA). Type of assay: cell-based. The settings on record: 24 h incubation. The procedure:
The cryopreserved normal human PBMCs (Milestone, PB010C) were thawed and resuspended in RPMI 1640 medium (Gibco, A1049101) supplemented with 10% fetal bovine serum (Gibco, 10099141), 100 U/mL penicillin, and 100 µg/mL streptomycin (Gibco, 15140122). After 0.95 mL of cells were plated in each well of a 24-well cell culture plate, 50 µL of diluted compound solution was added to corresponding wells with cells, such that the final concentration of the compound fell within the range of 0.01-3000 nM. The final concentration of DMSO was 0.25%. After the compound-treated cell plate was incubated in an incubator at 37° C. with 5% CO2 for 24 h, the cells were collected into 1.5 mL centrifuge tubes and centrifuged at 1000 rpm at 4° C. for 5 min. The cell pellets were washed twice with 1×DPBS. The resuspended cells were lysed with 100 μL of lysis buffer, left to stand on ice for 30 min, and then centrifuged at 14000 g at 4° C. for 10 min. The samples of the cell lysate supernatant after centrifugation were cryopreserved at −80° C. before testing. The cell lysis buffer was a Western and IP cell lysis buffer (Beyotime, P0013) supplemented with 1 mM phenylmethylsulfonyl fluoride and a protease inhibitor cocktail (Beyotime, P1008).
The total protein concentrations of the cell lysate samples were determined using a BCA protein quantification kit (Tiangen, PA115-02).
The prepared PBMC lysate samples were assayed for IRAK4 concentrations using a human IRAK4 AlphaLISA assay kit (PerkinElmer, AL3117C) to determine the degradation effects of the compounds on IRAK4. The method is as follows:
5 μL of each of IRAK4 standard solutions with different concentrations and test samples of cell lysate supernatant were added to a white 384-well plate (PerkinElmer, 6007299), and then 10 μL of 5× anti-IRAK4 […] beads was added to each well (final concentration of 10 μg/mL). The plate was incubated at room temperature for 30 min. Then 10 μL of 5× biotin-labeled anti-IRAK4 antibody was added to each well (final concentration of 1 nM), and the plate was incubated at room temperature for another 60 min. Finally, 25 μL of 2× streptavidin-labeled donor beads was added to each well (final concentration of 40 μg/mL), and the plate was incubated at room temperature for another 30 min. After the incubation was completed, AlphaLISA signal values were measured on a microplate reader EnVision (PerkinElmer, 2105) in the AlphaScreen standard mode. A standard curve was plotted from the AlphaLISA signal values of the IRAK4 standard solutions with different concentrations, and the IRAK4 concentration of each cell lysate supernatant was determined according to the corresponding concentrations on the standard curve for the AlphaLISA signal values of the test samples and by performing corresponding correction on the total protein concentration of each sample obtained by BCA quantification. The degradation rates for the compounds at each concentration were calculated by comparing the IRAK4 concentration with that of the control group. Then non-linear curve fittings for logarithmic concentration-inhibition rate were performed using GraphPad Prism 8, and the DC50 and Dmax values of the compound were obtained.
For orientation: In Alpha technology, singlet oxygen from a donor bead excites a nearby acceptor bead.
For `O=C1CCN(c2cc(C(=O)N3CCC4(CCC(CN5CCC(n6cc(NC(=O)c7cnn8ccc(N9C[C@H]%10C[C@@H]9CO%10)nc78)c(C(F)F)n6)CC5)CC4)CC3)ccc2Cl)C(=O)N1` [Example 1, 5-((1R,4R)-2-oxa-5-azabicyclo[2.2.1]heptan-5-yl)-N-(1-(1-((3-(4-chloro-3-(2,4-dioxotetrahydropyrimidin-1(2H)-yl)benzoyl)-3-azaspiro[5.5]undecan-9-yl)methyl)piperidin-4-yl)-3-(difluoromethyl)-1H-pyrazol-4-yl)pyrazolo[1,5-a]pyrimidine-3-carboxamide], the DC50 worked out at 1.28 nM and the Dmax came out at 99%.

In turn, `O=C1CCN(c2cc(C(=O)N3CCC4(CCN(C[C@H]5CC[C@H](n6cc(NC(=O)c7cnn8ccc(N9C[C@H]%10C[C@@H]9CO%10)nc78)c(C(F)F)n6)CC5)CC4)CC3)ccc2Cl)C(=O)N1` [Example 2, 5-((1R,4R)-2-oxa-5-azabicyclo[2.2.1]heptan-5-yl)-N-(1-((1r,4R)-4-((9-(4-chloro-3-(2,4-dioxotetrahydropyrimidin-1(2H)-yl)benzoyl)-3,9-diazaspiro[5.5]undecan-3-yl)methyl)cyclohexyl)-3-(difluoromethyl)-1H-pyrazol-4-yl)pyrazolo[1,5-a]pyrimidine-3-carboxamide] had a DC50 of 1.56 nM and a Dmax of 99.1%.

Regarding `COc1ccc(C(=O)N2CCC3(CCC(CN4CCC(n5cc(NC(=O)c6cnn7ccc(N8C[C@H]9C[C@@H]8CO9)nc67)c(C(F)F)n5)CC4)CC3)CC2)cc1N1CCC(=O)NC1=O` [Example 3, 5-((1R,4R)-2-oxa-5-azabicyclo[2.2.1]heptan-5-yl)-N-(3-(difluoromethyl)-1-(1-((3-(3-(2,4-dioxotetrahydropyrimidin-1(2H)-yl)-4-methoxybenzoyl)-3-azaspiro[5.5]undecan-9-yl)methyl)piperidin-4-yl)-1H-pyrazol-4-yl)pyrazolo[1,5-a]pyrimidine-3-carboxamide], the DC50 is 0.28 nM and the maximal degradation (Dmax) is 97.7%.

Compound `O=C1CCN(c2cc(C(=O)N3CCC4(CCC(CN5CCC(n6cc(NC(=O)c7cnn8ccc(N9CCOCC9)nc78)c(C(F)F)n6)CC5)CC4)CC3)ccc2Cl)C(=O)N1` [Example 4, N-(1-(1-((3-(4-chloro-3-(2,4-dioxotetrahydropyrimidin-1(2H)-yl)benzoyl)-3-azaspiro[5.5]undecan-9-yl)methyl)piperidin-4-yl)-3-(difluoromethyl)-1H-pyrazol-4-yl)-5-morpholinopyrazolo[1,5-a]pyrimidine-3-carboxamide] yielded a DC50 of 0.39 nM and a Dmax of 97.2%.

The compound `O=C1CCN(c2cc(C(=O)N3CCC4(CCC(CN5CCC(n6cc(NC(=O)c7cnn8ccc(N9CCNCC9)nc78)c(C(F)F)n6)CC5)CC4)CC3)ccc2Cl)C(=O)N1` [Example 5, N-(1-(1-((3-(4-chloro-3-(2,4-dioxotetrahydropyrimidin-1(2H)-yl)benzoyl)-3-azaspiro[5.5]undecan-9-yl)methyl)piperidin-4-yl)-3-(difluoromethyl)-1H-pyrazol-4-yl)-5-(piperazin-1-yl)pyrazolo[1,5-a]pyrimidine-3-carboxamide] registered a DC50 of 0.6 nM and a Dmax of 98.8%.

Regarding `COc1ccc(C(=O)N2CCC3(CCC(CN4CCC(n5cc(NC(=O)c6cnn7ccc(N8CC9CCC(C8)O9)nc67)c(C(F)F)n5)CC4)CC3)CC2)cc1N1CCC(=O)NC1=O` [Example 6, 5-(8-oxa-3-azabicyclo[3.2.1]octan-3-yl)-N-(3-(difluoromethyl)-1-(1-((3-(3-(2,4-dioxotetrahydropyrimidin-1(2H)-yl)-4-methoxybenzoyl)-3-azaspiro[5.5]undecan-9-yl)methyl)piperidin-4-yl)-1H-pyrazol-4-yl)pyrazolo[1,5-a]pyrimidine-3-carboxamide], the DC50 was found to be 0.56 nM and the maximal degradation (Dmax) is 97.9%.

`O=C1CCN(c2cc(C(=O)N3CCC(CCCCN4CCC(n5cc(NC(=O)c6cnn7ccc(N8C[C@H]9C[C@@H]8CO9)nc67)c(C(F)F)n5)CC4)CC3)ccc2Cl)C(=O)N1` [Example 7, 5-((1R,4R)-2-oxa-5-azabicyclo[2.2.1]heptan-5-yl)-N-(1-(1-(4-(1-(4-chloro-3-(2,4-dioxotetrahydropyrimidin-1(2H)-yl)benzoyl)piperidin-4-yl)butyl)piperidin-4-yl)-3-(difluoromethyl)-1H-pyrazol-4-yl)pyrazolo[1,5-a]pyrimidine-3-carboxamide] displayed a DC50 of 0.39 nM and a Dmax of 98.1%.

In turn, `O=C1CCN(c2cc(C(=O)N3CCC4(CCC(CN5CCC(n6cc(NC(=O)c7cnn8ccc(N9CCOCC9)nc78)c(C(F)F)n6)CC5)CC4)CC3)ccc2F)C(=O)N1` [Example 12, N-(3-(difluoromethyl)-1-(1-((3-(3-(2,4-dioxotetrahydropyrimidin-1(2H)-yl)-4-fluorobenzoyl)-3-azaspiro[5.5]undecan-9-yl)methyl)piperidin-4-yl)-1H-pyrazol-4-yl)-5-morpholinopyrazolo[1,5-a]pyrimidine-3-carboxamide] returned a DC50 of 0.37 nM and a Dmax of 98%.

`Cc1ccc(C(=O)N2CCC3(CCC(CN4CCC(n5cc(NC(=O)c6cnn7ccc(N8CCOCC8)nc67)c(C(F)F)n5)CC4)CC3)CC2)cc1N1CCC(=O)NC1=O` [Example 13, N-(3-(difluoromethyl)-1-(1-((3-(3-(2,4-dioxotetrahydropyrimidin-1(2H)-yl)-4-methylbenzoyl)-3-azaspiro[5.5]undecan-9-yl)methyl)piperidin-4-yl)-1H-pyrazol-4-yl)-5-morpholinopyrazolo[1,5-a]pyrimidine-3-carboxamide] came in with a DC50 of 0.21 nM and a Dmax of 98.2%.

For `COc1ccc(C(=O)N2CCC3(CCC(CCN4CCC(n5cc(NC(=O)c6cnn7ccc(N8CCOCC8)nc67)c(C(F)F)n5)CC4)CC3)CC2)cc1N1CCC(=O)NC1=O` [Example 16, N-(3-(difluoromethyl)-1-(1-(2-(3-(3-(2,4-dioxotetrahydropyrimidin-1(2H)-yl)-4-methoxybenzoyl)-3-azaspiro[5.5]undecan-9-yl)ethyl)piperidin-4-yl)-1H-pyrazol-4-yl)-5-morpholinopyrazolo [1,5-a]pyrimidine-3-carboxamide], the DC50 turned out to be 0.7 nM and the maximal degradation (Dmax) was determined as 98.4%.

`O=C1CCN(c2cc(C(=O)N3CCC4(CCC(CCN5CCC(n6cc(NC(=O)c7cnn8ccc(N9CCOCC9)nc78)c(C(F)F)n6)CC5)CC4)CC3)ccc2Cl)C(=O)N1` [Example 20, N-(1-(1-(2-(3-(4-chloro-3-(2,4-dioxotetrahydropyrimidin-1(2H)-yl)benzoyl)-3-azaspiro[5.5]undecan-9-yl)ethyl)piperidin-4-yl)-3-(difluoromethyl)-1H-pyrazol-4-yl)-5-morpholinopyrazolo[1,5-a]pyrimidine-3-carboxamide]: the DC50 is 0.72 nM and the Dmax stood at 95.7%.

With `Cc1ccc(C(=O)N2CCC3(CCC(CN4CCC(n5cc(NC(=O)c6cnn7ccc(N8C[C@H]9C[C@@H]8CO9)nc67)c(C(F)F)n5)CC4)CC3)CC2)cc1N1CCC(=O)NC1=O` [Example 21, 5-((1R,4R)-2-oxa-5-azabicyclo[2.2.1]heptan-5-yl)-N-(3-(difluoromethyl)-1-(1-((3-(3-(2,4-dioxotetrahydropyrimidin-1(2H)-yl)-4-methylbenzoyl)-3-azaspiro[5.5]undecan-9-yl)methyl)piperidin-4-yl)-1H-pyrazol-4-yl)pyrazolo[1,5-a]pyrimidine-3-carboxamide], the DC50 was 0.45 nM and the Dmax came to 96.2%.
